Common to all, as to type: in vivo
Assay [1] has as its system STZ-induced diabetic mice. The experiment in a line: Water intake of the diabetic mice. As to conditions: propolins study. On the procedure:
(§1) The male FBV mice of 5 weeks old, commercially available from BioLASCO Co., Ilan, Taiwan, were acclimatized for 1 week, prior to administration of streptozotocin (STZ) at 40 mg/kg for 3 consecutive days. STZ was formulated with an aqueous solution of sodium citrate (pH 4.5, 73.5 mg/5 mL) on ice, and then 100 μL of the formulation was dosed by intraperitoneal injection. From day 2 in the 3 consecutive days, the mice were dosed with 5% (w/v) glucose water for 6 consecutive days. After allowing the mice to rest for 10 days, blood glucose levels were measured. After administration of STZ for 1 week, about 5 μL of blood was collected from each of the mice at the tail vein, and was assayed for blood glucose by a blood glucose monitor and chip (FORA, California, U.S.A.). After 1 week, blood glucose was detected once more, and whether blood glucose was smooth or not was evaluated prior to grouping. The values of blood glucose in all of the mice induced to suffer from diabetes were brought to fall within about 300±50 mg/dL.
(§2) An appropriate amount of the Taiwan Green Propolis alcohol extract was dissolved with 3 ml 95% alcohol and then uniformly mixed with 80 μL Tween 80 as a cosolvent; after concentrating under reduced pressure for removal of alcohol, it was dispersed into 16 ml water to give a liquid mixture of the Taiwan Green Propolis extract. This mixture was fed by 200 μL gavage into the diabetic mice designated as the Taiwan Green Propolis extract group.
(§3) An appropriate amount of propolins and its relevant derivatives, such as PPA, PPB, PPC, PPD, PPE, PPF, PPG, PPH, PPI or PPJ, was dissolved with 3 ml 95% alcohol and then uniformly mixed with 80 μL Tween 80; after concentrating under reduced pressure for removal of alcohol, it was uniformly dispersed into 16 ml water to give a liquid mixture of propolins. This mixture was fed by 200 μL gavage into the diabetic mice designated as the propolins and its relevant derivative group.
(§4) Sitagliptin (trade name: Januvia), commercially available from American Merck Co., was used as the DPP4 inhibitor. An appropriate amount of sitagliptin was dissolved in water to provide a final concentration allowing administration of the mice at a dose of 370 mg/kg. In the following example, Januvia was representative of the DPP4 inhibitors and acted as a positive control group for reference.
(§5) Tween 80 (80 μL) was mixed into 16 ml water to give a placebo, which was fed by 200 μL gavage into the STZ-induced diabetic mice or normal mice (i.e., the mice without induction for diabetes). Oral gavage was carried out once at a fixed time each day, and weight, feedstuff intake and water intake were measured weekly until tests were finished at 12-13 weeks.

The subject of assay [2] is STZ-induced diabetic mice. Kind of assay: Blood glucose in the STZ-induced diabetic mice. As to conditions: propolins study; for modulation of blood glucose: 8 weeks, dose 1.2-2.4% of the Januvia dose. On the procedure: as §1, with “mg/dL. […]” for “mg/dL.”
as §3, §4, §5

Assay [3] deals with STZ-induced diabetic mice. Kind of assay: Feedstuff intake of the diabetic mice. The conditions noted are these: propolins study. On the procedure: as §1, §2, §3, §4, §5
Assay [4] relates to STZ-induced diabetic mice. The experiment in a line: Oral glucose tolerance test (OGTT). As to conditions: propolins study; for AUC value for blood glucose (integral area) / extent of reduction of AUC compared with the STZ group: OGTT. The arrangement: reduction of AUC compared with the STZ group / extent of reduction of AUC compared with the STZ group: concentration or dose not given beside the values. On the procedure:
as §1
After administration of the testing substance to the animals for 12 weeks, the OGTT test was performed for evaluation of secretion and effects of insulin. All of the mice in the test were administered with the testing substance and then fasted for 4 hours prior to blood sampling at the first point called point 0. Afterwards, the mice were fed by oral gavage with 200 μL glucose in water, equivalent to a dose of 1.0 g/kg. After administration, blood was collected for an assay of blood glucose at 15, 30, 60, 120 and 180 minutes, respectively. Therefore, a total of 6 points, including points at 0, 15, 30, 60, 120 and 180 minutes, were obtained. About 5 μL of blood was collected from each of the mice at the tail vein and was then assayed for blood glucose by the blood glucose monitor and chip (FORA, California, U.S.A.). The blood glucose values at the Y-axis were plotted against the time points at the X-axis. Each group was calculated for an area under curve for comparison. The efficacy in regulation of blood glucose was evaluated by the area showing a relationship between the testing substance and secretion and effects of insulin.

Setting [5] is: after administration for 8 weeks by gavage daily, PPC 9.0, PPD 6.75, PPF 4.5, PPG 4.5, Januvia 370 mg/kg/mouse.
The mark [6] stands for this setting: 0 point, PPC 9.0, PPD 6.75, PPF 4.5, PPG 4.5, DPP4I 370 mg/kg/mouse.
Setting [7] is: 30-minute time point after glucose in water.

Entries after “also recorded” stand apart in the source; their conditions may differ.

Regarding `CC(C)=CCC/C(C)=C/Cc1c(O)cc2c(c1O)C(=O)C[C@@H](c1ccc(O)c(O)c1)O2` [PPC, (S,E)-2-(3,4-dihydroxyphenyl)-6-(3,7-dimethylocta-2,6-dien-1-yl)-5,7-dihydroxy-3,4-dihydro-2H-1-benzopyran-4-one], in assay [1], the “effect on water intake” value is given as “significantly inhibited water intake”. For the same compound, the water intake is reported as 8.2 mL/mouse in assay [1] (at 1 week), 16.0 mL/mouse in assay [1] (at 6 weeks) and 24.0 mL/mouse in assay [1] (at 8 weeks). Moreover, the “modulation of blood glucose” value in assay [2] was “highly effectively modulated”. Further, the blood glucose in assay [2] (setting [5]) is listed as 298 mg/dL; in assay [2] (at 0 week) it was 330 mg/dL. The “effect on feedstuff intake” value in assay [3] is “significantly inhibited feedstuff intake”. For the same compound, the feedstuff intake came to 7.2 g/mouse in assay [3] (at 1 week), 8.0 g/mouse in assay [3] (at 6 weeks) and 7.9 g/mouse in assay [3] (at 8 weeks). The “value of blood glucose in glucose tolerance test” value (“value of blood glucose” for short) in assay [4] (setting [6]) is on record as “about 350 mg/dL”; in assay [4] (setting [7]), “about 450 mg/dL”; in assay [4] (120-minute time point), “about 430 mg/dL”; in assay [4] (180-minute time point), 400 mg/dL. Besides, in assay [4], the “AUC value for blood glucose (integral area)” value (“AUC value for blood glucose” below) was “about 8.0×10^4”. Moreover, the “extent of reduction of AUC compared with the STZ group” value (from here on “extent of reduction of AUC”) in assay [4] is given as 28.2%.

`CC(C)=CCC/C(C)=C/Cc1c([C@@H]2CC(=O)c3c(O)cc(O)cc3O2)ccc(O)c1O` [PPD, (S,E)-2-(2-(3,7-dimethylocta-2,6-dien-1-yl)-3,4-dihydroxyphenyl)-5,7-dihydroxy-3,4-dihydro-2H-1-benzopyran-4-one]: in assay [1], the “effect on water intake” value was “significantly inhibited water intake”. For the same compound, the water intake in assay [1] (at 1 week) amounted to 8.0 mL/mouse; in assay [1] (at 6 weeks), 14.0 mL/mouse; in assay [1] (at 8 weeks), 16.0 mL/mouse. Besides, the “modulation of blood glucose” value in assay [2] was “highly effectively modulated”. The blood glucose in assay [2] (setting [5]) was determined as 400 mg/dL; in assay [2] (at 0 week), 330 mg/dL. Besides, in assay [3], the “effect on feedstuff intake” value is reported as “significantly inhibited feedstuff intake”. For the same compound, the feedstuff intake in assay [3] (at 1 week), in assay [3] (at 6 weeks) and in assay [3] (at 8 weeks) was 7.2 g/mouse in each case. Further, the “value of blood glucose” value in assay [4] (setting [6]) is reported as “about 380 mg/dL”; in assay [4] (setting [7]) it was “about 530 mg/dL”; in assay [4] (120-minute time point), “about 490 mg/dL”; in assay [4] (180-minute time point) it was 460 mg/dL. Moreover, the “AUC value for blood glucose” value in assay [4] was “about 8.7×10^4”. In assay [4], the “extent of reduction of AUC” value amounted to 16.2%.

As to `CC(C)=CCC/C(C)=C/Cc1cc([C@@H]2CC(=O)c3c(O)cc(O)cc3O2)cc(O)c1O` [PPF, (S,E)-2-(3-(3,7-dimethylocta-2,6-dien-1-yl)-4,5-dihydroxyphenyl)-5,7-dihydroxy-3,4-dihydro-2H-1-benzopyran-4-one], the water intake is listed as 8.0 mL/mouse in assay [1] (at 1 week), 13.0 mL/mouse in assay [1] (at 6 weeks) and 10.0 mL/mouse in assay [1] (at 8 weeks). Besides, the “modulation of blood glucose” value in assay [2] was “effectively highly modulated”. In addition, the blood glucose in assay [2] (setting [5]) worked out at 398 mg/dL; in assay [2] (at 0 week), 330 mg/dL. The “effect on feedstuff intake” value in assay [3] is listed as “significantly inhibited feedstuff intake”. The values for the feedstuff intake in assay [3] (at 1 week), in assay [3] (at 6 weeks) and in assay [3] (at 8 weeks) were 6.3 g/mouse, 7.0 g/mouse and 6.3 g/mouse, respectively. Further, the “value of blood glucose” value in assay [4] (setting [6]) is given as “about 390 mg/dL”; in assay [4] (setting [7]) it was “about 525 mg/dL”; in assay [4] (120-minute time point) it was “about 420 mg/dL”; in assay [4] (180-minute time point), 430 mg/dL. The “AUC value for blood glucose” value in assay [4] is reported as “about 8.2×10^4”. Also, the “extent of reduction of AUC” value in assay [4] worked out at 15.0%.

As to `CC(C)=CCC/C(C)=C/Cc1c([C@@H]2CC(=O)c3c(cc(O)c(CC=C(C)C)c3O)O2)ccc(O)c1O` [PPG, (S,E)-2-(2-(3,7-dimethylocta-2,6-dien-1-yl)-3,4-dihydroxyphenyl)-5,7-dihydroxy-6-(3-methylbut-2-en-1-yl)-3,4-dihydro-2H-1-benzopyran-4-one], the results for the water intake in assay [1] (at 1 week), in assay [1] (at 6 weeks) and in assay [1] (at 8 weeks) were 6.5 mL/mouse, 9.0 mL/mouse and 9.0 mL/mouse, respectively. The “modulation of blood glucose” value in assay [2] was “higher activity for modulation of blood glucose than DPP4I; also recorded: the most effective compound for modulating blood glucose”. Further, the blood glucose was 298 mg/dL in assay [2] (setting [5]) and 330 mg/dL in assay [2] (at 0 week). Also, the “effect on feedstuff intake” value in assay [3] is on record as “significantly inhibited feedstuff intake”. Further, the feedstuff intake in assay [3] (at 1 week) is 4.8 g/mouse; in assay [3] (at 6 weeks) it was 7.0 g/mouse; in assay [3] (at 8 weeks) it was 7.2 g/mouse. In addition, the “value of blood glucose” value in assay [4] (setting [6]) was “about 385 mg/dL”; in assay [4] (setting [7]) it was “about 525 mg/dL”; in assay [4] (120-minute time point) it was “about 380 mg/dL”; in assay [4] (180-minute time point), 350 mg/dL. Further, the “AUC value for blood glucose” value in assay [4] is recorded as “about 7.8×10^4”. For the same compound, in assay [4], the “extent of reduction of AUC” value was found to be 31.7%. Further, the “efficacy in glucose tolerance test” value in assay [4] (compared to the STZ group) is on record as “more excellent efficacy”.

The record behind these values is patent publication US9457007B2, “Prenylflavanone compounds for modulating diabetes” (NATUREWISE BIOTECH & MEDICALS CORPORATION, priority 2013, dated 2016).
